Results published in PubChem BioAssay AID328 (DTP/NCI, 2004).
Several values for one entry are separate records, joined by “and”; a condition that tells them apart may be missing. Equal values may be shown once. Toxic doses and inconclusive results are not listed.

Test system: BDF1 mice, P388 leukemia ip, median survival T/C
Test: NCI In Vivo Anticancer Drug Screen. Data for tumor model P388 Leukemia (intraperitoneal) in B6D2F1 (BDF1) mice
Conditions: endpoint: median survival time, higher = longer survival
Method in brief: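 T/C = treated-group survival ÷ vehicle-control survival; tumour transplanted into mice before dosing.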

**Q.** Which results are given for `COC(=O)C[C@](O)(CCCC(C)(C)O)C(=O)O[C@@H]1C(OC)=C[C@]23CCCN2CCc2cc4c(cc2[C@H]13)OCO4`?
**A.** T/C (dose: 0.06 mg/kg/injection, schedule: Q01DX010 (ip), vehicle: saline): 154 % of control; T/C (dose: 0.13 mg/kg/injection, schedule: Q01DX010 (ip), vehicle: saline): 172 % of control; T/C (dose: 0.25 mg/kg/injection, schedule: Q01DX009 (ip), vehicle: acid diluted with saline): 180 % of control; T/C (dose: 0.25 mg/kg/injection, schedule: Q01DX009 (ip), vehicle: water): 233 % of control and 244 % of control; T/C (dose: 0.25 mg/kg/injection, schedule: Q01DX010 (ip), vehicle: saline): 181 % of control; T/C (dose: 0.25 mg/kg/injection, schedule: Q03HX016 (ip), vehicle: acid diluted with saline): 160 % of control; T/C (dose: 0.5 mg/kg/injection, schedule: Q01DX006 (iv), vehicle: acid diluted with saline): 115 % of control; T/C (dose: 0.5 mg/kg/injection, schedule: Q01DX009 (ip), vehicle: acid diluted with saline): 190 % of control; T/C (dose: 0.5 mg/kg/injection, schedule: Q01DX009 (ip), vehicle: saline): 240 % of control and 100 % of control; T/C (dose: 0.5 mg/kg/injection, schedule: Q01DX009 (ip), vehicle: water): 272 % of control and 300 % of control; T/C (dose: 0.5 mg/kg/injection, schedule: Q01DX009 (oral), vehicle: acid diluted with saline): 115 % of control; T/C (dose: 0.5 mg/kg/injection, schedule: Q01DX009 (oral), vehicle: saline): 155 % of control; T/C (dose: 0.5 mg/kg/injection, schedule: Q01DX009 (sc), vehicle: saline): 105 % of control; T/C (dose: 0.5 mg/kg/injection, schedule: Q01DX010 (ip), vehicle: saline): 245 % of control and 215 % of control; T/C (dose: 0.5 mg/kg/injection, schedule: Q03HX016 (ip), vehicle: acid diluted with saline): 180 % of control; T/C (dose: 1.0 mg/kg/injection, schedule: Q01DX006 (iv), vehicle: acid diluted with saline): 160 % of control; T/C (dose: 1.0 mg/kg/injection, schedule: Q01DX009 (ip), vehicle: acid diluted with saline): 225 % of control and 218 % of control; T/C (dose: 1.0 mg/kg/injection, schedule: Q01DX009 (ip), vehicle: saline): 245 % of control and 100 % of control; T/C (dose: 1.0 mg/kg/injection, schedule: Q01DX009 (ip), vehicle: water): 327 % of control and 338 % of control; T/C (dose: 1.0 mg/kg/injection, schedule: Q01DX009 (oral), vehicle: acid diluted with saline): 115 % of control; T/C (dose: 1.0 mg/kg/injection, schedule: Q01DX009 (oral), vehicle: saline): 240 % of control; T/C (dose: 1.0 mg/kg/injection, schedule: Q01DX009 (sc), vehicle: acid diluted with saline): 170 % of control; T/C (dose: 1.0 mg/kg/injection, schedule: Q01DX010 (ip), vehicle: saline): 120 % of control; T/C (dose: 1.0 mg/kg/injection, schedule: Q03HX008 (ip), vehicle: acid diluted with saline): 150 % of control; T/C (dose: 1.0 mg/kg/injection, schedule: Q03HX016 (ip), vehicle: acid diluted with saline): 100 % of control; T/C (dose: 2.0 mg/kg/injection, schedule: Q01DX001 (ip), vehicle: acid diluted with saline): 120 % of control; T/C (dose: 2.0 mg/kg/injection, schedule: Q01DX001 (iv), vehicle: acid diluted with saline): 110 % of control; T/C (dose: 2.0 mg/kg/injection, schedule: Q01DX001 (oral), vehicle: acid diluted with saline): 110 % of control; T/C (dose: 2.0 mg/kg/injection, schedule: Q01DX001 (sc), vehicle: acid diluted with saline): 110 % of control; T/C (dose: 2.0 mg/kg/injection, schedule: Q01DX006 (iv), vehicle: acid diluted with saline): 200 % of control; T/C (dose: 2.0 mg/kg/injection, schedule: Q01DX009 (ip), vehicle: acid diluted with saline): 240 % of control and 254 % of control; T/C (dose: 2.0 mg/kg/injection, schedule: Q01DX009 (ip), vehicle: water): 88 % of control; T/C (dose: 2.0 mg/kg/injection, schedule: Q01DX009 (sc), vehicle: acid diluted with saline): 235 % of control; T/C (dose: 2.0 mg/kg/injection, schedule: Q01DX009 (sc), vehicle: saline): 205 % of control; T/C (dose: 2.0 mg/kg/injection, schedule: Q04DX003 (ip), vehicle: acid diluted with saline): 155 % of control and 168 % of control and 170 % of control; T/C (dose: 2.0 mg/kg/injection, schedule: Q04DX003 (ip), vehicle: saline): 173 % of control; T/C (dose: 3.33 mg/kg/injection, schedule: Q04DX003 (ip), vehicle: acid diluted with saline): 112 % of control; T/C (dose: 4.0 mg/kg/injection, schedule: Q01DX001 (ip), vehicle: acid diluted with saline): 115 % of control; T/C (dose: 4.0 mg/kg/injection, schedule: Q01DX001 (iv), vehicle: acid diluted with saline): 110 % of control; T/C (dose: 4.0 mg/kg/injection, schedule: Q01DX001 (oral), vehicle: acid diluted with saline): 110 % of control; T/C (dose: 4.0 mg/kg/injection, schedule: Q01DX001 (sc), vehicle: acid diluted with saline): 120 % of control; T/C (dose: 4.0 mg/kg/injection, schedule: Q01DX006 (iv), vehicle: acid diluted with saline): 120 % of control; T/C (dose: 4.0 mg/kg/injection, schedule: Q01DX009 (ip), vehicle: acid diluted with saline): 190 % of control; T/C (dose: 4.0 mg/kg/injection, schedule: Q01DX009 (ip), vehicle: saline): 100 % of control; T/C (dose: 4.0 mg/kg/injection, schedule: Q01DX009 (sc), vehicle: saline): 115 % of control; T/C (dose: 4.0 mg/kg/injection, schedule: Q04DX003 (ip), vehicle: acid diluted with saline): 110 % of control; T/C (dose: 8.0 mg/kg/injection, schedule: Q01DX009 (ip), vehicle: saline): 104 % of control; T/C (dose: 62.5 micrograms/kg/injection, schedule: Q01DX009 (ip), vehicle: saline): 154 % of control; T/C (dose: 125.0 micrograms/kg/injection, schedule: Q01DX009 (ip), vehicle: saline): 154 % of control; T/C (dose: 125.0 micrograms/kg/injection, schedule: Q03HX024 (ip), vehicle: acid diluted with saline): 170 % of control; T/C (dose: 250.0 micrograms/kg/injection, schedule: Q01DX009 (ip), vehicle: saline): 163 % of control; T/C (dose: 250.0 micrograms/kg/injection, schedule: Q03HX024 (ip), vehicle: acid diluted with saline): 190 % of control; T/C (dose: 500.0 micrograms/kg/injection, schedule: Q01DX009 (ip), vehicle: saline): 190 % of control; T/C (dose: 500.0 micrograms/kg/injection, schedule: Q03HX024 (ip), vehicle: acid diluted with saline): 215 % of control; T/C (dose: 1000.0 micrograms/kg/injection, schedule: Q01DX009 (ip), vehicle: saline): 213 % of control
